According to paper PMC8292346, “Dysfunction of the key ferroptosis-surveilling systems hypersensitizes mice to tubular necrosis during acute kidney injury” (Nature Communications, 2021):
Where “and” joins values, the source holds several entries; their conditions need not be identical. Equal entries are not always repeated.

Legend:
BZD (central) = experiment: Off-target radioligand binding screen; conditions: Nec-1f 10 µM
B6 LysM-GFP mice = experiment: Intravital two-photon imaging of neutrophils in transplanted hearts; type: in vivo, mouse; conditions: heart transplantation, recipient mice 2.0 mg/kg body weight
Protocol: Hearts harvested from wild-type C57BL/6 mice were transplanted into the right neck of syngeneic LysM-GFP hosts, as previously described. […] Intravital two-photon imaging was performed using a custom-built microscope running ImageWarp version 2.1 acquisition software (A&B Software). For time-lapse imaging of cell trafficking, we averaged 15 video-rate frames (0.5 s per slice) during the acquisition. Each plane represents an image of 220 × 240 μm in the x and y dimensions and twenty-one sequential planes were acquired in the z dimension (2.5-μm each). Each individual neutrophil was tracked from its first appearance in the imaging window and followed up to the time point at which it dislocated more than 20 μm from its starting position. Fifty microlitres PBS containing 15 μl 655-nm nontargeted Q-dots (Thermo Fisher Scientific) were injected prior to imaging to visualize coronary vessels and assess whether neutrophils were intravascular or extravascular. The number of extravascular neutrophils was divided by the sum of intravascular and extravascular neutrophils to calculate extravasation. Imaris (Bitplane) was used for multidimensional rendering and manual cell tracking.

5-HT transporter (h) = 5-HT transporter (h) (Homo sapiens, UniProt P31645); experiment: Off-target radioligand binding screen; conditions: read-out: 5-HT transporter (h) ($): inhibition of radioligand binding
C57Bl/6 N mice = experiment: Bilateral kidney ischemia-reperfusion injury, moderate model (30 min ischemia); type: in vivo, mouse
From the text: Otherwise, the two models are identical.

M3(h) = M3(h) (Homo sapiens, UniProt P20309); experiment: Off-target radioligand binding screen; conditions: read-out: M3(h) ($): inhibition of radioligand binding
[1] = Nec-1f - sham, individual animals
[2] = Nec-1f, 48 h after onset of reperfusion, individual animals
[3] = Nec-1f, 72 h after onset of reperfusion, individual animals
[4] = kidney IRI, 1.65 mg/kg i.p. 15 min before
[5] = mice, bilateral kidney IRI, Nec-1f 1.65 mg/kg i.p. 15 min before, individual animals
[6] = mice, kidney IRI, Nec-1f, individual animals

M3(h), sequence (P20309 whole entry): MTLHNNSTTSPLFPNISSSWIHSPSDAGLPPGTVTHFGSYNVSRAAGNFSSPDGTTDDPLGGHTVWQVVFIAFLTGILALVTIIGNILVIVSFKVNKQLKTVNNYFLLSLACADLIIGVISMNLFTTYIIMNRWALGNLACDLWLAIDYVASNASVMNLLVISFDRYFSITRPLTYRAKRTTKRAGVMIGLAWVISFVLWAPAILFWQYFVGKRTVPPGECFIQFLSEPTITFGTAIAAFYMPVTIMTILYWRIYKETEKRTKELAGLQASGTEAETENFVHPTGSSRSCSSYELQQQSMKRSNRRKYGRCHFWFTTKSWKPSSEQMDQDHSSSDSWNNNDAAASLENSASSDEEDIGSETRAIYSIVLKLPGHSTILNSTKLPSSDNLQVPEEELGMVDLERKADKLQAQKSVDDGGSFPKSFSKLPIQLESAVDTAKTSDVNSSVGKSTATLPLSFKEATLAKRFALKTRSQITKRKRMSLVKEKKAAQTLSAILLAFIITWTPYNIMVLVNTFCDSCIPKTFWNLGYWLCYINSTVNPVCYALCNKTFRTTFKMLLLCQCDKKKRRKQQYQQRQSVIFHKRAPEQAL
5-HT transporter (h), sequence (P31645 whole entry, the tested form may be a part): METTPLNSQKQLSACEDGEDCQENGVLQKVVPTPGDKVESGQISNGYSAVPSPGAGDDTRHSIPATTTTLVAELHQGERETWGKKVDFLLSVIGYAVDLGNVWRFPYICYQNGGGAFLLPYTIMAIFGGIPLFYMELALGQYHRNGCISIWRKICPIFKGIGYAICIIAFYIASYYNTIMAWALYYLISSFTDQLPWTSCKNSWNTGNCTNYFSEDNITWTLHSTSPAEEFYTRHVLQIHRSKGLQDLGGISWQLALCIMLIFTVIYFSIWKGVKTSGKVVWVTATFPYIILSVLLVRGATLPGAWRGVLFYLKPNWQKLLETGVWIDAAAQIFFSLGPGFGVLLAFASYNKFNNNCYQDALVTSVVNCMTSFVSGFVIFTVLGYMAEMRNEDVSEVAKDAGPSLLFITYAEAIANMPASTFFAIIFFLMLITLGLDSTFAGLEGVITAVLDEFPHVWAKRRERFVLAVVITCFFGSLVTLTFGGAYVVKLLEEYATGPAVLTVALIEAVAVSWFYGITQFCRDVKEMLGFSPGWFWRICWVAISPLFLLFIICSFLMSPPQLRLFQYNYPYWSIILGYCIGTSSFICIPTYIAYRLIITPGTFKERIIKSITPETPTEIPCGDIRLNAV

## CN1C(=O)C(Cc2c[nH]c3c(Cl)cccc23)NC1=S (centres unmarked) [Nec-1f]
BZD (central)
  BZD (central) (#): inhibition of radioligand binding: -4.6%
B6 LysM-GFP mice
  Density of neutrophils: highly significant decreases
  Extravasation of neutrophils: highly significant reductions
  Neutrophil rolling velocities: significant increases
  Rate of neutrophil recruitment to the graft: did not alter
5-HT transporter (h)
  inhibition at 10 µM: -5.9%
C57Bl/6 N mice; [1]
  Serum creatinine: 23 µmol/L and 17 µmol/L
  Serum urea: 5.5 mmol/L and 5.6 mmol/L
C57Bl/6 N mice; [2]
  Serum creatinine: 28 µmol/L and 95 µmol/L and 52 µmol/L and 60 µmol/L and 40 µmol/L and 74 µmol/L and 33 µmol/L and 35 µmol/L and 39 µmol/L
  Serum urea: 19.1 mmol/L and 76 mmol/L and 75 mmol/L and 43.6 mmol/L and 50.1 mmol/L and 32.1 mmol/L and 57 mmol/L and 22.5 mmol/L and 16.7 mmol/L and 34.1 mmol/L and 24.8 mmol/L
C57Bl/6 N mice; [3]
  Serum creatinine: 79 µmol/L and 31 µmol/L and 63 µmol/L and 46 µmol/L and 53 µmol/L and 44 µmol/L
  Serum urea: 30.9 mmol/L and 8.8 mmol/L and 20.2 mmol/L and 18.9 mmol/L and 37.3 mmol/L and 16.4 mmol/L
C57Bl/6 N mice; [4]
  4HNE staining of renal tissue: attenuated
  Infiltration of macrophages (F4/80) in the renal medulla: significantly less infiltration
  Serum creatinine vs vehicle: lower than in the vehicle-treated mice
  Serum urea vs vehicle: lower than in the vehicle-treated mice
  Tubular damage vs vehicle: lower than in the vehicle-treated mice
C57Bl/6 N mice; kidney IRI, column headed Nec-1f
  4HNE score, arbitrary [0-3] (sheet FigS2d): 1.6 and 1.4
C57Bl/6 N mice; [5]
  4HNE staining score, arbitrary [0-3]: 0.6 and 1.6 and 1.8 and 0.8 and 1.2
  Tubular damage score, arbitrary [0-10]: 5 and 7 and 4
C57Bl/6 N mice; [6]
  F4/80 positivity, quantitative (Fig6i): 8.8 cells/field and 7.8 cells/field and 20.3 cells/field and 16.2 cells/field and 20.8 cells/field
  F4/80 positivity, quantitative (Fig6h): 3.45 cells/field and 6.077 cells/field and 9.25 cells/field and 7.125 cells/field and 9.0625 cells/field
M3(h)
  inhibition at 10 µM: -4.9%
